Key:
[1] = system: MCF7; assay: Growth inhibition of human MCF7 cells at 10 uM after 24 hrs by MTS assay relative to control; format: functional; details: MCF7, 24 h, read-out: GI
[2] = system: SW480; assay: Growth inhibition of human SW480 cells at 10 uM after 24 hrs by MTS assay relative to control; format: functional; details: SW480, 24 h, read-out: GI
[3] = biological target: T1, Tyrosine-protein phosphatase non-receptor type 1 (Homo sapiens) (UniProt P18031); assay: Inhibition of recombinant human PTP1B using p-nitrophenyl phosphate as substrate at 10 uM after 30 mins relative to control
T1 sequence (whole entry): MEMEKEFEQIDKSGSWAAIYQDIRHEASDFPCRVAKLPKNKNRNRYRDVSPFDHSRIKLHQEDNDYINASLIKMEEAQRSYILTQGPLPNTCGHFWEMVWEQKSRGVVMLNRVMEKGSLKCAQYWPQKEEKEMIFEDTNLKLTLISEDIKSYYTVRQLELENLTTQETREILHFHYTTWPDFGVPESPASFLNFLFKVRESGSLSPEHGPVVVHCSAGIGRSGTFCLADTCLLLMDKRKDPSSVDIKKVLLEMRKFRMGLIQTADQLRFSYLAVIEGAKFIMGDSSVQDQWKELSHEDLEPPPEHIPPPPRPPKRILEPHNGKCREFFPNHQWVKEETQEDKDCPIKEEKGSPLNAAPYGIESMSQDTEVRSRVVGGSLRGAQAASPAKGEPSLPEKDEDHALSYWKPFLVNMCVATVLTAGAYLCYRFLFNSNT

[4] = biological target: Mushroom tyrosinase (Agaricus bisporus) (UniProt O42713+Q00024+C7FF04+C7FF05); assay: Inhibition of mushroom tyrosinase at 10 uM using L-tyrosine as substrate incubated for 15 mins followed by substrate addition relative to control
[5] = system: RAW264.7; assay: Antiinflammatory activity in mouse RAW264.7 cells assessed as inhibition of LPS-induced NO production at 10 uM after 24 hrs by Griess reagent based assay relative to control; format: functional; details: RAW264.7, 24 h
[6] = species on record: Homo sapiens; assay: Inhibition of LPS-induced NF-kappaB transcription (unknown origin) expressed in human SW480 cells at 10 uM by luciferase reporter gene assay; format: cell-based
[7] = system: HepG2; assay: Growth inhibition of human HepG2 cells at 10 uM after 24 hrs by MTS assay relative to control; format: functional; details: HepG2, 24 h, read-out: GI

Row | Structure (SMILES) | inhibition [3] | inhibition [4] | inhibition of growth at 10 µM [1] | inhibition of growth at 10 µM [2] | inhibition at 10 µM [5] | inhibition [6] | inhibition of growth at 10 µM [7]
1 | CC(C)=CCc1c(O)cc2occ(-c3ccc(O)cc3)c(=O)c2c1O [WIGHTEONE] | 19% | 15% | 17% | 34% | 0% | 11% | 6%
2 | CC1(C)C=Cc2c(ccc(-c3coc4cc(O)cc(O)c4c3=O)c2O)O1 [LICOISOFLAVONE B] | 69% | 14% | 14% | 13% | 10% | 4% | 13 to 14%
3 | CC(C)=CCc1cc2c(=O)cc(-c3ccc(O)cc3)oc2cc1O [LICOFLAVANONE A] | 79% | 17% | 0% | 30% | 11% | 7% | 5%
4 | CC(C)=CCc1c(O)cc(O)c2c(=O)c(-c3ccc(O)cc3O)coc12 | 34% | 17% | 31% | 13% | 9% | 8% | 5%
5 | CC(C)=CCc1c(O)ccc2c1oc1c3ccc(O)cc3oc(=O)c21 [ISOSOJAGOL] | 21% | 11% | 12% | 26% | 15% | 28% | 23%
6 | CC(C)=CCc1c(O)ccc(-c2cc3ccc(O)cc3o2)c1O [2'-O-DEMETHYLBIDWILLOL B] | 24% | 12% | 16% | 36% | 32% | 42% | 8%
7 | CC(C)=CCc1cc([C@@H]2CC(=O)c3ccc(O)cc3O2)cc2c1OC(C)(C)C=C2 [ABYSSINONES III] | 43% | 6% | 0% | 26% | 17% | 28% | 9%
8 | CC1(C)C=Cc2cc(-c3coc4cc(O)ccc4c3=O)cc(O)c2O1 | 0% | 0% | 0% | 5% | 22% | 23% | 14%
9 | CC(C)=CCc1cc2c(=O)cc(-c3ccc4c(c3)C=CC(C)(C)O4)oc2cc1O | 33% | 9% | 7% | 51% | 1% | 3% | 11%
10 | CC1(C)C=Cc2cc(-c3coc4cc(O)cc(O)c4c3=O)ccc2O1 | 27% | 14% | 2 to 23% | 13 to 70% | 10% | 27% | 11%
11 | COc1cc(O)c(-c2coc3cc(O)ccc3c2=O)c(OC)c1CC=C(C)C | 18% | 15% | 33% | 0% | 14% | 3% | 0%
12 | CC(C)=CCc1c(O)cc(O)c2c(=O)c(-c3ccc(O)cc3)coc12 | 0% | 16% | 23% | 13% | 18% | 25% | 23%
13 | CC(C)=CCc1cc([C@@H]2CC(=O)c3ccc(O)cc3O2)ccc1O [ABYSSINONE II] | 5% | 4% | 25% | 22% | 8% | 0% | 4%
14 | CC1(C)C(=O)CC[C@]2(C)[C@H]3C(=O)C=C4[C@@H]5C[C@@](C)(C(=O)O)CC[C@]5(C)CC[C@@]4(C)[C@]3(C)[C@@H](O)C[C@@H]12 | 1% | 5% | 25% | 48% | 6% | 28% | 1%

Second part, led by results:

Row | inhibition [3] | inhibition [4] | Structure (SMILES) | inhibition of growth at 10 µM [1] | inhibition of growth at 10 µM [2] | inhibition at 10 µM [5] | inhibition [6] | inhibition of growth at 10 µM [7]
15 | 47% | 11% | COc1ccc(-c2coc3cc(O)ccc3c2=O)c(O)c1 [XENOGNOSIN B] | 1% | 13% | 1% | 4% | 0%
16 | 2% | 6% | COc1cc([C@H]2COc3cc(O)ccc3C2)ccc1O | 14% | 24% | 23% | 0% | 3%
17 | 75% | 16% | COc1cc(O)ccc1/C=C/C(=O)c1ccc(O)cc1 [ECHINATIN] | 0% | 24% | 26% | 0% | 6%
18 | 33% | 10% | COc1ccc(-c2coc3cc(O)ccc3c2=O)cc1 [FORMONONETIN] | 2% | 4% | 0% | 3% | 0%
19 | 73% | 14% | CC(C)=CCc1c(O)ccc(C(=O)/C=C/c2ccc(O)cc2)c1O [ISOBAVACHALCONE] | 16% | 20% | 0% | 0% | 39%
20 | 36% | 2% | O=C1C[C@@H](c2ccc(O)cc2)Oc2cc(O)ccc21 [LIQUIRTIGENIN] | 27% | 9% | 0% | 19% | 13%
21 | 29% | 2% | O=c1c(-c2ccc(O)cc2)coc2cc(O)cc(O)c12 [GENISTEIN] | 6% | 21% | 13% | 14% | 29%
22 | 1% | 16% | O=C(/C=C/c1ccc(O)c(O)c1)c1ccc(O)c(O)c1 | 5% | 10% | 1% | 13% | 8%
23 | 28% | 9% | O=c1c(-c2ccc(O)c(O)c2)coc2cc(O)ccc12 | 0% | 43% | 0% | 0% | 3%
24 | 2% | 31% | COc1ccc2c(c1)OC[C@H]1c3ccc(O)cc3O[C@@H]21 | 20% | 17% | 3% | 0% | 5%

— ChEMBL document CHEMBL4033705, “Screening for bioactive natural products from a 67-compound library of Glycyrrhiza inflata” (Bioorg Med Chem, 2017)
